Source: US11111259B2, “Acylsulfonamide derivatives for treating senescence-associated diseases and disorders” (Unity Biotechnology, Inc., priority 2015, dated 2021)

Tests used:
BCL-xL = BCL-xL (Homo sapiens, UniProt Q07817); test: BCL-binding assay (AlphaLISA competition, BAD peptide); settings: 6xHis BCL-xL with biotinylated BAD peptide, 24 hr incubation
Procedure: (§1) Compounds were prepared as 400× DMSO stock solutions in a 1:4 dilution series then diluted […] in assay buffer (25 mM HEPES pH 7.5, 100 mM NaCl, 0.1% BSA, 0.005% Tween) immediately before use. Aliquots of 400 nM 6xHis-tagged BCL-xL, BCL-2, and BCL-w were thawed on ice and diluted to 0.4 (BCL-XL) or 0.8 (BCL-W and 2) nM in assay buffer. Aliquots of biotinylated BIM and BAD peptides were diluted in assay buffer to 120 and 60 nM respectively. Ten microliters of biotinylated peptide were added to wells of a 96-well PCR plate, followed by ten microliters of inhibitor, then ten microliters of BCL protein, BCL-XL with BAD and BCL-W/2 with BIM. The plates were sealed and incubated at room temperature. After 24 hr, 0.16 μg Anti-His conjugated AlphaLISA acceptor beads were added in 5 μL assay buffer. After one hour at room temperature, 0.16 μg AlphaScreen streptavidin donor beads were added in 5 μL assay buffer and plates were incubated an additional 30 min in the dark. Two 17 μL aliquots of each reaction were plated in a Perkin Elmer 384-well proxiplate, and plates were scanned for using a Perkin Elmer Enspire plate reader. Kd values were calculated in Prism Graph Pad using a one site competitive binding model and previously determined Kd values for each protein peptide pair. […]

[1] = tested on: IMR-90 SnC (irradiated senescent IMR90 cells); test: Senolysis assay (CellTiter-Glo viability); type: cell-based, human; settings: for EC50: Homo sapiens, IMR-90, light or radiation study, 72 h, X-ray irradiated senescent IMR90 cells, viability three days after compound addition; for SI (ratio of EC50 of non-senescent cells to EC50 of senescent cells): IMR90 non-senescent vs senescent cells
Procedure: IMR90 cells are maintained in DMEM supplemented with 10% FBS. To prepare a senescent population, cells were trypsinized, diluted to 50,000 per mL, and irradiated with 10-15 Gy of X-ray irradiation. Irradiated cells were plated at 5000 cells per well in one third of a 96-well plate and maintained for two weeks prior to the assay. Four days prior to the assay, non-senescent IMR90s were plated at 2500 per well in the second third of the plate. One day prior to the assay, 2500 non-senescent cells were plated in the final third of the plate. Compounds were prepared as a 200×DMSO dilution series then diluted to 1× in media immediately before adding to cells. Three days after compound addition, cell viability was measured using CellTiter-Glo reagent from Promega. Viability was calculated relative to a DMSO control and EC50 values are calculated in Prism GraphPad. […] The selectivity (SI) of the compounds described herein is a ratio of the EC50 of non-senescent cells to the EC50 of senescent cells. The SI of the compounds described herein is 10 or above for “A” selectivity, between 2 and 10 for “B” selectivity or 2 or less for “C” selectivity.

BCL-w = target: T1, BCL-w (Homo sapiens, UniProt Q92843); test: BCL-binding assay (AlphaLISA competition, BIM peptide); settings: 6xHis BCL-w with biotinylated BIM peptide, 24 hr incubation
T1 sequence (Q92843 1-193): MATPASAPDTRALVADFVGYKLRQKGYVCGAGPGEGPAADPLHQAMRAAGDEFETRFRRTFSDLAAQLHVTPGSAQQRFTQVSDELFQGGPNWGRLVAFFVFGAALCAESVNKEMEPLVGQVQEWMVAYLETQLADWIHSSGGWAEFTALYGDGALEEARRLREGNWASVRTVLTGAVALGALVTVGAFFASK
Procedure: as §1

BCL-2 = BCL-2 (Homo sapiens, UniProt P10415); test: as above; settings: 6xHis BCL-2 with biotinylated BIM peptide, 24 hr incubation
Chain of BCL-2 (P10415 whole entry, species assumed): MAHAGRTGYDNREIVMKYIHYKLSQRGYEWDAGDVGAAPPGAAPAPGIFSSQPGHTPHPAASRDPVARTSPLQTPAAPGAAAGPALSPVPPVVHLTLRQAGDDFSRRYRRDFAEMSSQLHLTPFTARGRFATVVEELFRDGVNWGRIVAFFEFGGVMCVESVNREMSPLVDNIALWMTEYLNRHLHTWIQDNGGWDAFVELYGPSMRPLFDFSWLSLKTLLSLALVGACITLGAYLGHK
Procedure: as §1

Chain of BCL-xL (Q07817 whole entry, species assumed): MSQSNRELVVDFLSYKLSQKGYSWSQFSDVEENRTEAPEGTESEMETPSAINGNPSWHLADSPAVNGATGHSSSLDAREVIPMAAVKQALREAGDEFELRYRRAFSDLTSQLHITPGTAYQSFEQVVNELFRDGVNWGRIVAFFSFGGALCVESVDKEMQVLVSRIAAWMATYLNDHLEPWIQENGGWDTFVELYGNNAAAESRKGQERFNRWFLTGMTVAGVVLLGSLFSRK

| Compound | Kd (BCL-xL) [nM] | EC50 [1] [nM] | Kd (BCL-w) [nM] | Kd (BCL-2) [nM] | SI (ratio of EC50 of non-senescent cells to EC50 of senescent cells) [1] |
| --- | --- | --- | --- | --- | --- |
| CCOP(=O)(O)CN1CCN(CC[C@H](CSc2ccccc2)Nc2ccc(S(=O)(=O)NC(=O)c3ccc(N4CCN(Cc5ccccc5-c5ccc(Cl)cc5)CC4)cc3)cc2S(=O)(=O)C(F)(F)F)CC1 [Compound 53, Ethyl hydrogen ((4-((R)-3-((4-(N-(4-(4-((4′-chloro-[1,1′-biphenyl]-2-yl)methyl)piperazin-1-yl)benzoyl)sulfamoyl)-2-((trifluoromethyl)sulfonyl)phenyl)amino)-4-(phenylthio)butyl)piperazin-1-yl)methyl)phosphonate] | < 1 | > 10000 | < 1 | < 1 | – |
| CCOP(=O)(CN1CCN(CC[C@H](CSc2ccccc2)Nc2ccc(S(=O)(=O)NC(=O)c3ccc(N4CCN(CC5=C(c6ccc(Cl)cc6)CCC(C)(C)C5)CC4)cc3)cc2S(=O)(=O)C(F)(F)F)CC1)OC(C)(C)C (stereo partly drawn) [Compound 26] | 10 to 50 | > 10000 | > 50 | > 50 | – |
| CC1(C)CCC(c2ccc(Cl)cc2)=C(CN2CCN(c3ccc(C(=O)NS(=O)(=O)c4ccc(N[C@H](CCN5CCN(CCCP(=O)(Oc6ccccc6)Oc6ccccc6)CC5)CSc5ccccc5)c(S(=O)(=O)C(F)(F)F)c4)cc3)CC2)C1 [Compound 25] | 1 to 10 | > 10000 | > 50 | < 1 | C (2 or less) |
| COP(=O)(CCCN1CCN(CC[C@H](CSc2ccccc2)Nc2ccc(S(=O)(=O)NC(=O)c3ccc(N4CCN(CC5=C(c6ccc(Cl)cc6)CCC(C)(C)C5)CC4)cc3)cc2S(=O)(=O)C(F)(F)F)CC1)OC [Compound 24] | < 1 | < 1000 | 1 to 10 | < 1 | A (10 or above) |
| CCOP(=O)(CN1CCN(CC(CSc2ccccc2)Nc2ccc(S(=O)(=O)NC(=O)c3ccc(N4CCN(CC5=C(c6ccc(Cl)cc6)CCC(C)(C)C5)CC4)cc3)cc2S(=O)(=O)C(F)(F)F)CC1)OCC (stereo not drawn) [Compound 34] | 1 to 10 | > 10000 | > 50 | < 1 | C (2 or less) |
| CC1(C)CCC(c2ccc(Cl)cc2)=C(CN2CCN(c3ccc(C(=O)NS(=O)(=O)c4ccc(N[C@H](CCN5CCN(CCCP(=O)(OCOC(=O)C(C)(C)C)OCOC(=O)C(C)(C)C)CC5)CSc5ccccc5)c(S(=O)(=O)C(F)(F)F)c4)cc3)CC2)C1 [Compound 40] | < 1 | > 10000 | 10 to 50 | < 1 | B (between 2 and 10) |
| CC1(C)CCC(c2ccc(Cl)cc2)=C(CN2CCN(c3ccc(C(=O)NS(=O)(=O)c4ccc(N[C@H](CCN5CCN(CCP(=O)(O)O)CC5)CSc5ccccc5)c(S(=O)(=O)C(F)(F)F)c4)cc3)CC2)C1 [Compound 13] | < 1 | > 10000 | 1 to 10 | < 1 | – |
| CCOP(=O)(O)CN1CCN(CC[C@H](CSc2ccccc2)N(c2ccc(S(=O)(=O)NC(=O)c3ccc(N4CCN(CC5=C(c6ccc(Cl)cc6)CCC(C)(C)C5)CC4)cc3)cc2S(=O)(=O)C(F)(F)F)S(C)(=O)=O)CC1 [Compound 30] | 1 to 10 | 1000 to 10000 | > 50 | 1 to 10 | – |
| CCOP(=O)(CN1CCN(CC[C@H](CSc2ccccc2)Nc2ccc(S(=O)(=O)NC(=O)c3ccc(N4CCN(Cc5ccccc5-c5ccc(Cl)cc5)CC4)cc3)cc2S(=O)(=O)C(F)(F)F)CC1)OCOC(=O)C(C)(C)C (stereo partly drawn) [Compound 54, (((4-((R)-3-((4-(N-(4-(4-((4′-chloro-[1,1′-biphenyl]-2-yl)methyl)piperazin-1-yl)benzoyl)sulfamoyl)-2-((trifluoromethyl)sulfonyl)phenyl)amino)-4-(phenylthio)butyl)piperazin-1-yl)methyl)(ethoxy)phosphoryl)oxy)methyl pivalate] | < 1 | 1000 to 10000 | 1 to 10 | < 1 | B (between 2 and 10) |
| CN(CC[C@H](CSc1ccccc1)Nc1ccc(S(=O)(=O)NC(=O)c2ccc(N3CCN(CC4=C(c5ccc(Cl)cc5)CCC(C)(C)C4)CC3)cc2)cc1S(=O)(=O)C(F)(F)F)CCP(=O)(O)O [Compound 12] | < 1 | > 10000 | 10 to 50 | < 1 | – |
